In patent US7491819B1 (priority 2004, dated 2009):

target: T1, HIV-integrase (Human immunodeficiency virus type 1 group M subtype B, UniProt P12497); assay: HIV-Integrase Inhibition Activity (SPA bead strand-transfer assay); format: biochemical; details: Table 1; read-out: Activity (HIV-integrase inhibition, IC50 class)
T1 construct: Recombinant integrase (0.26 ng) was incubated with the beads
Procedure: HIV-Integrase Inhibition Activity. To evaluate in-vitro activity against HIV-integrase, 5 pmole of biotin labeled substrate DNA was bound to 100 μg of Streptavidin coated PVT SPA beads (Amersham Pharmacia Biotech). Recombinant integrase (0.26 ng) was incubated with the beads for 90 min at 37° C. Unbound enzyme was removed by washing the complex followed by addition of inhibitors and 0.1 fmol of P33 labeled target DNA. The reaction was stopped by adding EDTA to a final concentration of 10 mM. Samples were counted in TopCountNXT (Packard) and the CPM was used as a measure of integration. The reaction condition was as described in A. Engelman and R. Craigie, J. Virol 69, 5908-5911 (1995). The sequences of substrate and target DNA were described in Nucleic Acid Research 22, 1121-1122 (1994).

Which IC50 does the source give for `CC(=O)OC[C@H]1CCC(=O)N1c1cc(F)ccc1CNC(=O)c1nc2n(c(=O)c1O)CCOC2(C)C` [Example 129, Pyrimido[2,1-c][1,4]oxazine-2-carboxamide, N-[[2-[(2R)-2-[(acetyloxy)methyl]-5-oxo-1-pyrrolidinyl]-4-fluorophenyl]methyl]-4,6,7,9-tetrahydro-3-hydroxy-9,9-dimethyl-4-oxo-] here?
The IC50 was 0.002 to 0.1 µM.

For `CC1(C)OCCn2c1nc(C(=O)NCc1ccc(F)c(Cl)c1)c(O)c2=O` [Example 32, Pyrimido[2,1-c][1,4]oxazine-2-carboxamide, N-[(3-chloro-4-fluorophenyl)methyl]-4,6,7,9-tetrahydro-3-hydroxy-9,9-dimethyl-4-oxo-], which IC50 is on record?
Its IC50 is 0.002 to 0.1 µM.

For `CC1(C)OCCn2c1nc(C(=O)NCCCc1ccc(Cl)c(Cl)c1)c(O)c2=O` [Example 25, Pyrimido[2,1-c][1,4]oxazine-2-carboxamide, N-[3-(3,4-dichlorophenyl)propyl]-4,6,7,9-tetrahydro-3-hydroxy-9,9-dimethyl-4-oxo-], which IC50 is on record?
The IC50 was 0.1 to 1 µM.

How did the IC50 turn out when `CSc1ccc(CNC(=O)c2nc3n(c(=O)c2O)CCOC3(C)C)cc1` [Example 143, Pyrimido[2,1-c][1,4]oxazine-2-carboxamide, 4,6,7,9-tetrahydro-3-hydroxy-9,9-dimethyl-N-[[4-(methylthio)phenyl]methyl]-4-oxo-] was run?
Its IC50 is 0.002 to 0.1 µM.

Which IC50 does the source give for `CC1(C)OCCn2c1nc(C(=O)NCc1ccc(F)cc1C(=O)N1CCOCC1)c(O)c2=O` [Example 52, Pyrimido[2,1-c][1,4]oxazine-2-carboxamide, N-[[4-fluoro-2-(4-morpholinylcarbonyl)phenyl]methyl]-4,6,7,9-tetrahydro-3-hydroxy-9,9-dimethyl-4-oxo-] here?
The IC50 was 0.002 to 0.1 µM.

How did the IC50 turn out when `CC1(C)OCCn2c1nc(C(=O)NCc1ccc(F)cc1S(N)(=O)=O)c(O)c2=O` [Example 110, Pyrimido[2,1-c][1,4]oxazine-2-carboxamide, N-[[2-(aminosulfonyl)-4-fluorophenyl]methyl]-4,6,7,9-tetrahydro-3-hydroxy-9,9-dimethyl-4-oxo-] was run?
The IC50 was 0.002 to 0.1 µM.

How did the IC50 turn out when `CC1(C)OCCn2c1nc(C(=O)NCc1ccccc1-c1cccc(C#N)c1)c(O)c2=O` [Example 167, Pyrimido[2,1-c][1,4]oxazine-2-carboxamide, N-[(3′-cyano[1,1′-biphenyl]-2-yl)methyl]-4,6,7,9-tetrahydro-3-hydroxy-9,9-dimethyl-4-oxo-] was run?
The IC50 was 0.002 to 0.1 µM.

With `CON(Cc1ccc(F)cc1)C(=O)c1nc2n(c(=O)c1O)CCOC2(C)C` [Example 214, Pyrimido[2,1-c][1,4]oxazine-2-carboxamide, N-[(4-fluorophenyl)methyl]-4,6,7,9-tetrahydro-3-hydroxy-N-methoxy-9,9-dimethyl-4-oxo-] as the molecule, how does the IC50 read?
Its IC50 is over 1 µM.

Which IC50 does the source give for `Cc1cc(-c2ccccc2CNC(=O)c2nc3n(c(=O)c2O)CCOC3(C)C)cnc1F` [Example 192, Pyrimido[2,1-c][1,4]oxazine-2-carboxamide, N-[[2-(6-fluoro-5-methyl-3-pyridinyl)phenyl]methyl]-4,6,7,9-tetrahydro-3-hydroxy-9,9-dimethyl-4-oxo-] here?
Its IC50 is 0.002 to 0.1 µM.

How did the IC50 turn out when `CCC1(CC)OCCn2c1nc(C(=O)NCc1ccc(F)cc1)c(O)c2=O` [Example 42, Pyrimido[2,1-c][1,4]oxazine-2-carboxamide, 9,9-diethyl-N-[(4-fluorophenyl)methyl]-4,6,7,9-tetrahydro-3-hydroxy-4-oxo-] was run?
Its IC50 is 0.002 to 0.1 µM.

`CC1(C)OCCn2c1nc(C(=O)NCc1ccc(Cl)cn1)c(O)c2=O` [Example 29, N-((5-Chloropyridin-2-yl)methyl)-3-hydroxy-9,9-dimethyl-4-oxo-4,6,7,9-tetrahydropyrimido[2,1-c][1,4]oxazine-2-carboxamide] was tested. Which IC50 did it give?
The IC50 was 0.002 to 0.1 µM.

With `CN1CCN(C(=O)c2ncn(-c3cc(F)ccc3CNC(=O)c3nc4n(c(=O)c3O)CCOC4(C)C)n2)CC1` [Example 69, Pyrimido[2,1-c][1,4]oxazine-2-carboxamide, N-[[4-fluoro-2-[3-[(4-methyl-1-piperazinyl)carbonyl]-1H-1,2,4-triazol-1-yl]phenyl]methyl]-4,6,7,9-tetrahydro-3-hydroxy-9,9-dimethyl-4-oxo-] as the molecule, how does the IC50 read?
The IC50 was 0.002 to 0.1 µM.
